Measured values as given in patent publication US8283322B2, “Formulations for nonsurgical exogenous crosslink therapy” (Orthopeutics, LP, priority 2008, dated 2012).
“Also recorded” adds a separate entry of the source.

B1: transglutaminase (protein, UniProt P21980 2-687, looked up)
Protein-glutamine …: AEELVLERCDLELETNGRDHHTADLCREKLVVRRGQPFWLTLHFEGRNYEASVDSLTFSVVTGPAPSQEAGTKARFPLRDAVEEGDWTATVVDQQDCTLSLQLTTPANAPIGLYRLSLEASTGYQGSSFVLGHFILLFNAWCPADAVYLDSEEERQEYVLTQQGFIYQGSAKFIKNIPWNFGQFEDGILDICLILLDVNPKFLKNAGRDCSRRSSPVYVGRVVSGMVNCNDDQGVLLGRWDNNYGDGVSPMSWIGSVDILRRWKNHGCQRVKYGQCWVFAAVACTVLRCLGIPTRVVTNYNSAHDQNSNLLIEYFRNEFGEIQGDKSEMIWNFHCWVESWMTRPDLQPGYEGWQALDPTPQEKSEGTYCCGPVPVRAIKEGDLSTKYDAPFVFAEVNADVVDWIQQDDGSVHKSINRSLIVGLKISTKSVGRDEREDITHTYKYPEGSSEEREAFTRANHLNKLAEKEETGMAMRIRVGQSMNMGSDFDVFAHITNNTAEEYVCRLLLCARTVSYNGILGPECGTKYLLNLNLEPFSEKSVPLCILYEKYRDCLTESNLIKVRALLVEPVINSYLLAERDLYLENPEIKIRILGEPKQKRKLVAEVSLQNPLPVALEGCTFTVEGAGLTEEQKTVEIPDPVEAGEEVKVRMDLLPLHMGLHKLVVNFESDKLKAVKGFRNVIIGPA

What was measured:
[1] = tested on: homogenized annulus tissue; experiment: Crosslinking of annulus tissue quantified by hydroxyproline release upon collagenase digestion; details: for concentration at which crosslinking was complete / a plateau was reached: FIG. 1, 1 hr (MG), 6 hrs (DT and LT); for pH: optimized pH for crosslinking; for pH dependence of crosslinking: sub-saturating crosslinker, pH 4-9 with a different buffer at each pH (FIG. 2, FIG. 3); for effect of buffer (EPPS vs Tris) on crosslinking: 100 mM EPPS or 100 mM Tris, GP at pH 9; for effect of phosphate on crosslinking: Tris buffer pH 8, increasing concentrations of sodium phosphate
Experimental: (§1) Increasing concentrations of protein crosslinkers were added to homogenized annulus tissue and incubated for either 1 hr (EDC, GP, MG, PA and GA), 2 hrs (TG) or 6 hrs (DT and LT). Crosslinking was quantified by determining the amount of hydroxyproline (HYP) released from the tissue by collagenase digestion.
(§2) Homogenized annulus tissue was treated with sub-saturating concentrations of various crosslinkers at varying pH and incubated for either 1 hr (EDC, GP, MG, PA and GA), 2 hrs (TG) or 6 hrs (LT). Crosslinking was quantified by determining the amount of hydroxyproline (HYP) released from the tissue by collagenase digestion.
(§3) In order to determine the effective concentration range for various crosslinking reagents we incubated samples of annulus tissue in increasing concentrations of either genipin (GP), methylglyoxal (MG), proanthrocyanidin (PA), L-threose (LT), D-threose (DT), dimethylaminopropyl) carbodiimide hydrochloride (EDC) or transglutaminase (TG). Crosslinking efficiency was measured indirectly by monitoring the release of peptides containing hydroxyproline upon subsequent digestion with collagenase. Glutaraldehyde (GA), a commonly used, but highly toxic protein crosslinker was used as a positive control.
(§4) To test this hypothesis, the inventors subjected calf annulus fibrosus tissue to crosslinking with sub-saturating levels of our reagents at varying pH. In order to maintain optimal buffering capacity at each pH, different buffers were selected for each point.

[2] = tested on: homogenized annulus tissue; details: bovine
Experimental: as §1, §2, §3, §4

[3] = in water; proposed values; cited from earlier work
[4] = at 20° C.; cited from earlier work
[5] = saturating crosslinker concentration, Table 5
[6] = sub-saturating MG, 100 mM MOPS pH 7

| Molecule | concentration at which crosslinking was complete / a plateau was reached [1] | [Saturating] [1, 5] | pH ([1]; Table 5) | pH dependence of crosslinking [1] | T1/2 [2] [min] | further results |
| --- | --- | --- | --- | --- | --- | --- |
| O=C[C@@H](O)[C@H](O)CO [D-Threose, D-threose] | approximately 50 mM | 50 mM |  |  |  |  |
| CCN=C=NCCCN(C)C.Cl [EDC, 1-ethyl-3-[3-dimethylaminopropyl]carbodiimide hydrochloride] |  | 2.5 to 5 mM | 6 | required a relatively narrow pH range |  |  |
| O=CCCCC=O [Glutaraldehyde, reference compound] |  | 1 to 2 mM | 8-9 |  | <5 |  |
| O=C[C@H](O)[C@@H](O)CO [L-Threose, L-threose] | approximately 50 mM | 50 mM | 8-9 | function better in disc tissue at the higher pH levels | 150 | effect of buffer (EPPS vs Tris) on crosslinking [1]: did not see any difference; max solubility [3]: comparable to MG |
| CC(=O)C=O [Methylglyoxal, methylglyoxal] | 50 mM |  | 8-9 |  | 14 to 20 | enhancement of crosslinking by phosphate ([1]; 100 mM EPPS pH 8, 100 mM potassium phosphate, p=0.1): approximately 3 fold; effect of phosphate on crosslinking [1]: enhance disc tissue crosslinking in a dose-dependent manner; [Saturating] ([1]; at pH 7): 30 to 50 mM; [Saturating] ([1]; at pH 8 (100 mM EPPS buffer), listed as MG): 10 mM; borohydride concentration at which the crosslinking reaction was enhanced [1, 6]: 1 to 5 mM; effect of 10 mM borohydride on crosslinking [1, 6]: inhibitory; borohydride concentration at which enhancement was observed ([1]; sub-saturating MG, EPPS buffer pH 8.0): below 1.5 mM; activity in EPPS when compared to Tris ([1]; sub-saturating MG, pH 8, 100 mM buffer, p<0.0001, n=10): ~2 fold; pH dependence of crosslinking ([1]; listed as MG): function better in disc tissue at the higher pH levels; also recorded: equally efficient at pH 8 and 9; also recorded: marked increase in its crosslinking ability at pH 8 compared to pH 7; max solubility [3]: about 6 M |
| proanthrocyanidin |  | 0.1% | 5-9 | relatively insensitive to pH | <5 | effect of buffer (EPPS vs Tris) on crosslinking [1]: did not see any difference; effect of phosphate on crosslinking [1]: did not have any substantial |
| tris(hydroxymethyl)aminomethane |  |  |  |  |  | pKa [4]: 8.3 |
| B1 |  |  | 7-8 | required a relatively narrow pH range |  | [Saturating] ([1]; 2 hrs incubation, highest concentration tested 2 U/ml): >2 U/ml; [Saturating] ([1]; 2 hrs incubation, highest concentration tested 2 U/ml, listed as TG): > 2 U/ml |
